Paper PMC7556816, “Structural and mechanistic analysis of ATPase inhibitors targeting mycobacterial DNA gyrase” (Journal of Antimicrobial Chemotherapy, 2020)
pIC50: −log10 of the molar value. Values after ≈ are worked out from the molar mass of the structure shown. Read-outs that look alike come from different tables or passages of the source.

Tests used:
[1] = system: M. smegmatis 4x03863 Mutant 3; experiment: microbe, parasite or virus in culture; type: cell-based; details: Mycolicibacterium smegmatis, read-out: MIC100
[2] = system: M. smegmatis 4x03863 Mutant 1; experiment: microbe, parasite or virus in culture; type: cell-based; details: Mycolicibacterium smegmatis, read-out: MIC100
[3] = system: M. smegmatis 4x03863 Mutant 4; experiment: microbe, parasite or virus in culture; type: cell-based; details: Mycolicibacterium smegmatis, read-out: MIC100
M. smegmatis ATCC 19420 = experiment: Antibacterial testing, broth microdilution (CLSI); type: cell-based, Mycobacterium smegmatis; details: Mycolicibacterium smegmatis
Procedure: (§1) Antibacterial testing was performed for Acinetobacter baumannii NCTC 13420, E. coli ATCC 25922, M. smegmatis ATCC 19420, Pseudomonas aeruginosa ATCC 27853 and Staphylococcus aureus ATCC 29213, using the broth microdilution method under CLSI guidelines[19] (Table 1). The agar dilution method was additionally performed for M. smegmatis under EUCAST guidelines.[20]

E. coli 2x03863 Mutant = experiment: microbe, parasite or virus in culture; type: cell-based; details: Escherichia coli, read-out: MIC100
E. coli ATCC 25922 = experiment: Antibacterial testing, broth microdilution (CLSI); type: cell-based; details: Escherichia coli
Procedure: as §1

[4] = system: M. smegmatis 4x03863 Mutant 2 (GyrB Gly83Ser)
M. tuberculosis gyrase [5] = target: T1, M. tuberculosis gyrase (Mycobacterium tuberculosis, UniProt P9WG45); experiment: DNA cleavage assay (cleavage complex stabilisation); type: biochemical; details: 20 nM gyrase, 1% DMSO
T1 construct: Both the GyrB and GyrBA constructs were altered by deleting the N-terminal 40 amino acids; made in house
Procedure: Figure S1. […] DNA cleavage assays were carried out as previously described;^11 these are essentially the same as supercoiling assays, except that the reactions are terminated by the addition of SDS and proteinase K, and incubated for a further 30 mins at 37°C. Samples contained 20 nM gyrase and 1% DMSO, except where indicated, and Moxifloxacin, Redx03863 or Redx04739, as indicated. Agarose gels (1%) were run in the presence of 0.5 µg/mL ethidium bromide. – indicates no gyrase; + and all other lanes contain gyrase. nc = nicked circular DNA; l = linear; cc = closed circular.

[6] = target: T2, M. tuberculosis GyrBA fusion protein (Mycobacterium tuberculosis, UniProt P9WG45+P9WG47); experiment: biochemical
T2 construct: Both the GyrB and GyrBA constructs were altered by deleting the N-terminal 40 amino acids; made in house; host or cells: E. coli Rosetta 2 (pLysS)

S. aureus ATCC 29213 = experiment: Antibacterial testing, broth microdilution (CLSI); type: cell-based; details: Staphylococcus aureus, ATCC29213
Procedure: as §1

P. aeruginosa ATCC 27853 = experiment: Antibacterial testing, broth microdilution (CLSI); type: cell-based; details: Pseudomonas aeruginosa, ATCC27853
Procedure: as §1

A. baumannii NCTC 13420 = experiment: Antibacterial testing, broth microdilution (CLSI); type: cell-based; details: Acinetobacter baumannii, NCTC13420
Procedure: as §1

M. tuberculosis gyrase [7] = target: T1, M. tuberculosis gyrase; experiment: ATP-independent relaxation of supercoiled DNA; type: biochemical; details: absence of ATP
Text: In the presence of FQs, gyrase can cleave DNA due to the cleavage complex being stabilized.[35]

M. tuberculosis gyrase [8] = target: T1, M. tuberculosis gyrase; experiment: biochemical; details: 74 nM of each gyrase subunit, 1% DMSO; read-out: IC50 (apparent), gyrase supercoiling
[9] = M. smegmatis ATCC19420 (WT), read-out: MIC100
[10] = E. coli ATCC25922 (WT), read-out: MIC100
[11] = GyrBA fusion protein at 200 nM, linear pBR322 DNA 20 μg/mL, read-out: apparent IC50, gyrase ATPase activity
[12] = gyrase 200 nM, IC50 lower than this not determinable, read-out: IC50, gyrase ATPase reaction
[13] = ATCC25922, E. coli ATCC 25922, broth microdilution, read-out: MIC
[14] = ATCC19420, M. smegmatis ATCC 19420, broth microdilution, read-out: MIC

SMILES	MIC [1] [µg/mL]	MIC [2] [µg/mL]	MIC [3] [µg/mL]	MIC (M. smegmatis ATCC 19420; [9]) [µg/mL]	MIC (E. coli 2x03863 Mutant) [µg/mL]	MIC (E. coli ATCC 25922; [10]) [µg/mL]	increase in resistance of mutant strain [4] [fold]	stabilization of the cleavage complex (M. tuberculosis gyrase [5])	pIC50 [6, 11]	pIC50 [6, 12]	MIC (E. coli ATCC 25922; [13]) [µg/mL]	MIC (S. aureus ATCC 29213) [µg/mL]	MIC (P. aeruginosa ATCC 27853) [µg/mL]	MIC (A. baumannii NCTC 13420) [µg/mL]	MIC (M. smegmatis ATCC 19420; [14]) [µg/mL]	inhibition of relaxation of supercoiled DNA (M. tuberculosis gyrase [7])	pIC50 (M. tuberculosis gyrase [8])
NNC(=O)c1ccncc1 [Isoniazid]	16 (≈ 117 µM)	32 (≈ 233 µM)	32 (≈ 233 µM)	32 (≈ 233 µM)	–	–	–	–	–	–	–	–	–	–	–	–	–
COc1c(N2C[C@@H]3CCCN[C@@H]3C2)c(F)cc2c(=O)c(C(=O)O)cn(C3CC3)c12 [Moxifloxacin, reference compound]	< 0.125	< 0.125	< 0.125	0.125 (≈ 0.311 µM)	0.016 (≈ 0.0399 µM)	0.016 (≈ 0.0399 µM)	–	–	–	–	–	–	–	–	–	–	–
CNc1cc(F)cc2c1[nH]c1nc(Oc3cnc(C)nc3)nc(N3C[C@@H]4[C@@H](N)[C@@H]4C3)c12 [Redx03863]	0.125 (≈ 0.297 µM)	0.25 (≈ 0.595 µM)	0.25 (≈ 0.595 µM)	0.016 (≈ 0.0381 µM)	32 (≈ 76.1 µM)	0.016 (≈ 0.0381 µM)	16	did not stabilize the cleavage complex	6.77	~6.70	0.016 (≈ 0.0381 µM)	0.125 (≈ 0.297 µM)	4 (≈ 9.51 µM)	0.031 (≈ 0.0737 µM)	0.016 (≈ 0.0381 µM)	did not inhibit	8.05
CNc1cc(F)cc2c1[nH]c1nc(CNC(=O)c3cnco3)nc(N3CCC(N)C3)c12 (centres unmarked) [Redx04739]	4 (≈ 9.42 µM)	4 (≈ 9.42 µM)	2 (≈ 4.71 µM)	0.5 (≈ 1.18 µM)	> 64	8 (≈ 18.8 µM)	8	did not stabilize the cleavage complex	6.68	~6.70	8 (≈ 18.8 µM)	8 (≈ 18.8 µM)	32 (≈ 75.4 µM)	64 (≈ 151 µM)	0.25 (≈ 0.589 µM)	did not inhibit	7.52
CO[C@@H]1[C@@H](OC(N)=O)[C@@H](O)[C@H](Oc2ccc3c(O)c(NC(=O)c4ccc(O)c(CC=C(C)C)c4)c(=O)oc3c2C)OC1(C)C [novobiocin, reference compound]	8 (≈ 13.1 µM)	4 (≈ 6.53 µM)	4 (≈ 6.53 µM)	2 (≈ 3.26 µM)	0.5 (≈ 0.816 µM)	64 (≈ 104 µM)	–	–	–	–	–	–	–	–	–	–	–
